{
  "source": "patent US20260297060A1",
  "about": "“COMPOUNDS FOR THE DEGRADATION OF MUTANT BRAF” (C4 THERAPEUTICS, INC., priority 2023, published 2026)",
  "assay": "Pharmacokinetics in female BALB/c nude mice bearing A375 xenografts, 1 day dosing (PK and PD study): plasma, tumor and brain concentrations, AUC",
  "assay_type": "in vivo",
  "conditions": "mouse, po",
  "description": "The concentrations of Dabrafenib, Compound 26 and Compound 141 in the treatment of female BALB/c nude mice bearing A375 xenografts are shown in Table 62-Table 72 and FIG. 52-FIG. 73.",
  "key": {"[1]": {"conditions": "plasma, 1.5 mg/kg, Compound 141, 1.5 mg/kg p.o. BID × 1 day, post 1st dose, read-out: Mean Concentration in Plasma ± SEM"}, "[2]": {"conditions": "plasma, 1.5 mg/kg, Compound 141, 1.5 mg/kg p.o. BID × 1 day, post 2nd dose, read-out: Mean Concentration in Plasma ± SEM"}, "[3]": {"conditions": "plasma, 3 mg/kg, 3 mg/kg p.o. QD × 1 day, read-out: Mean Concentration in Plasma ± SEM"}, "[4]": {"conditions": "plasma, 5 mg/kg, 5 mg/kg p.o. BID × 1 day, post 1st dose, read-out: Mean Concentration in Plasma ± SEM"}, "[5]": {"conditions": "plasma, 5 mg/kg, 5 mg/kg p.o. BID × 1 day, post 2nd dose, read-out: Mean Concentration in Plasma ± SEM"}, "[6]": {"conditions": "tumor, 0.75 mg/kg, 0.75 mg/kg p.o. BID × 1 day, post 2nd dose, read-out: Mean Concentration in Tumor ± SEM"}, "[7]": {"conditions": "tumor, 1 mg/kg, 1 mg/kg p.o. TID × 1 day, post 3rd dose, read-out: Mean Concentration in Tumor ± SEM"}, "[8]": {"conditions": "tumor, 1.5 mg/kg, Compound 141, 1.5 mg/kg p.o. BID × 1 day, post 2nd dose, read-out: Mean Concentration in Tumor ± SEM"}, "[9]": {"conditions": "tumor, 3 mg/kg, 3 mg/kg p.o. QD × 1 day, read-out: Mean Concentration in Tumor ± SEM"}, "[10]": {"conditions": "tumor, 5 mg/kg, 5 mg/kg p.o. BID × 1 day, post 2nd dose, read-out: Mean Concentration in Tumor ± SEM"}},
  "note": "Read-outs that look alike come from different tables or passages of the source.",
  "data": [
    {"smiles": "CCN(C)S(=O)(=O)Nc1ccc(F)c(Oc2ccc3ncn(C4CC5(CCN(C6CC7(C6)CN(c6cc8c(cc6F)c(N6CCC(=O)NC6=O)nn8C)C7)CC5)C4)c(=O)c3c2)c1C#N", "note": "(stereo not shown) [Compound 141, 6-[2-cyano-3-[[ethyl(methyl)sulfamoyl]amino]-6-fluoro-phenoxy]-3-[7-[2-[3-(2,4-dioxohexahydropyrimidin-1-yl)-5-fluoro-1-methyl-indazol-6-yl]-2-azaspiro[3.3]heptan-6-yl]-7-azaspiro[3.5]nonan-2-yl]-4-oxo-quinazoline]", "values": [
      {"measurement": "concentration at 0.25 h", "setting": "[1]", "value": "710 ± 61.9", "unit": "ng/mL"},
      {"measurement": "concentration at 0.5 h", "setting": "[1]", "value": "1150 ± 94", "unit": "ng/mL"},
      {"measurement": "concentration at 1 h", "setting": "[1]", "value": "2030 ± 255", "unit": "ng/mL"},
      {"measurement": "concentration at 2 h", "setting": "[1]", "value": "1610 ± 128", "unit": "ng/mL"},
      {"measurement": "concentration at 4 h", "setting": "[1]", "value": "796 ± 312", "unit": "ng/mL"},
      {"measurement": "concentration at 8 h", "setting": "[1]", "value": "256 ± 19.3", "unit": "ng/mL"},
      {"measurement": "concentration at 12 h", "setting": "[1]", "value": "43.4 ± 4.65", "unit": "ng/mL"},
      {"measurement": "concentration at 0.25 h", "setting": "[2]", "value": "359 ± 30.7", "unit": "ng/mL"},
      {"measurement": "concentration at 0.5 h", "setting": "[2]", "value": "830 ± 129", "unit": "ng/mL"},
      {"measurement": "concentration at 1 h", "setting": "[2]", "value": "1560 ± 99.1", "unit": "ng/mL"},
      {"measurement": "concentration at 2 h", "setting": "[2]", "value": "1550 ± 181", "unit": "ng/mL"},
      {"measurement": "concentration at 4 h", "setting": "[2]", "value": "831 ± 96.6", "unit": "ng/mL"},
      {"measurement": "concentration at 10 h", "setting": "[2]", "value": "115 ± 34.3", "unit": "ng/mL"},
      {"measurement": "concentration at 24 h", "setting": "[2]", "value": "1.2 ± 0.262", "unit": "ng/mL"},
      {"measurement": "concentration at 0.25 h", "setting": "[3]", "value": "1070 ± 209", "unit": "ng/mL"},
      {"measurement": "concentration at 0.5 h", "setting": "[3]", "value": "2020 ± 160", "unit": "ng/mL"},
      {"measurement": "concentration at 1 h", "setting": "[3]", "value": "2830 ± 372", "unit": "ng/mL"},
      {"measurement": "concentration at 2 h", "setting": "[3]", "value": "3660 ± 315", "unit": "ng/mL"},
      {"measurement": "concentration at 4 h", "setting": "[3]", "value": "1440 ± 285", "unit": "ng/mL"},
      {"measurement": "concentration at 8 h", "setting": "[3]", "value": "661 ± 279", "unit": "ng/mL"},
      {"measurement": "concentration at 10 h", "setting": "[3]", "value": "307 ± 60.4", "unit": "ng/mL"},
      {"measurement": "concentration at 24 h", "setting": "[3]", "value": "3.86 ± 2.5", "unit": "ng/mL"},
      {"measurement": "concentration at 36 h", "setting": "[3]", "value": 1.05, "unit": "ng/mL"},
      {"measurement": "concentration at 0.25 h", "setting": "[4]", "value": "1810 ± 126", "unit": "ng/mL"},
      {"measurement": "concentration at 0.5 h", "setting": "[4]", "value": "3460 ± 404", "unit": "ng/mL"},
      {"measurement": "concentration at 1 h", "setting": "[4]", "value": "4860 ± 155", "unit": "ng/mL"},
      {"measurement": "concentration at 2 h", "setting": "[4]", "value": "3650 ± 760", "unit": "ng/mL"},
      {"measurement": "concentration at 4 h", "setting": "[4]", "value": "1220 ± 55.5", "unit": "ng/mL"},
      {"measurement": "concentration at 8 h", "setting": "[4]", "value": "648 ± 142", "unit": "ng/mL"},
      {"measurement": "concentration at 12 h", "setting": "[4]", "value": "43.6 ± 2.7", "unit": "ng/mL"},
      {"measurement": "concentration at 0.25 h", "setting": "[5]", "value": "1680 ± 89.6", "unit": "ng/mL"},
      {"measurement": "concentration at 0.5 h", "setting": "[5]", "value": "3160 ± 596", "unit": "ng/mL"},
      {"measurement": "concentration at 1 h", "setting": "[5]", "value": "4850 ± 488", "unit": "ng/mL"},
      {"measurement": "concentration at 2 h", "setting": "[5]", "value": "3620 ± 428", "unit": "ng/mL"},
      {"measurement": "concentration at 4 h", "setting": "[5]", "value": "1750 ± 468", "unit": "ng/mL"},
      {"measurement": "concentration at 10 h", "setting": "[5]", "value": "484 ± 109", "unit": "ng/mL"},
      {"measurement": "concentration at 24 h", "setting": "[5]", "value": "4.28 ± 1.89", "unit": "ng/mL"},
      {"measurement": "concentration at 36 h", "setting": "[5]", "value": "2.06 ± 1.17", "unit": "ng/mL"},
      {"measurement": "concentration at 48 h", "setting": "[5]", "value": 0.635, "unit": "ng/mL"},
      {"measurement": "concentration at 1 h", "setting": "[6]", "value": "117 ± 11", "unit": "ng/g"},
      {"measurement": "concentration at 4 h", "setting": "[6]", "value": "143 ± 37.7", "unit": "ng/g"},
      {"measurement": "concentration at 10 h", "setting": "[6]", "value": "93 ± 22.1", "unit": "ng/g"},
      {"measurement": "concentration at 24 h", "setting": "[6]", "value": 3.27, "unit": "ng/g"},
      {"measurement": "concentration at 1 h", "setting": "[7]", "value": "152 ± 35.7", "unit": "ng/g"},
      {"measurement": "concentration at 4 h", "setting": "[7]", "value": "254 ± 43.2", "unit": "ng/g"},
      {"measurement": "concentration at 10 h", "setting": "[7]", "value": "205 ± 40.9", "unit": "ng/g"},
      {"measurement": "concentration at 24 h", "setting": "[7]", "value": "16.7 ± 12.2", "unit": "ng/g"},
      {"measurement": "concentration at 48 h", "setting": "[7]", "value": 8.07, "unit": "ng/g"},
      {"measurement": "concentration at 0.25 h", "setting": "[8]", "value": "58.9 ± 26.7", "unit": "ng/g"},
      {"measurement": "concentration at 0.5 h", "setting": "[8]", "value": "61.5 ± 14", "unit": "ng/g"},
      {"measurement": "concentration at 1 h", "setting": "[8]", "value": "239 ± 17.6", "unit": "ng/g"},
      {"measurement": "concentration at 2 h", "setting": "[8]", "value": "382 ± 43.9", "unit": "ng/g"},
      {"measurement": "concentration at 4 h", "setting": "[8]", "value": "214 ± 27.1", "unit": "ng/g"},
      {"measurement": "concentration at 10 h", "setting": "[8]", "value": "54.7 ± 17.9", "unit": "ng/g"},
      {"measurement": "concentration at 24 h", "setting": "[8]", "value": "22.5 ± 18.5", "unit": "ng/g"},
      {"measurement": "concentration at 36 h", "setting": "[8]", "value": 38.5, "unit": "ng/g"},
      {"measurement": "concentration at 48 h", "setting": "[8]", "value": 11.1, "unit": "ng/g"},
      {"measurement": "concentration at 1 h", "setting": "[9]", "value": "254 ± 26.3", "unit": "ng/g"},
      {"measurement": "concentration at 4 h", "setting": "[9]", "value": "439 ± 90.9", "unit": "ng/g"},
      {"measurement": "concentration at 10 h", "setting": "[9]", "value": "130 ± 19", "unit": "ng/g"},
      {"measurement": "concentration at 24 h", "setting": "[9]", "value": "12.9 ± 7.75", "unit": "ng/g"},
      {"measurement": "concentration at 48 h", "setting": "[9]", "value": 7.64, "unit": "ng/g"},
      {"measurement": "concentration at 1 h", "setting": "[10]", "value": "626 ± 78.6", "unit": "ng/g"},
      {"measurement": "concentration at 4 h", "setting": "[10]", "value": "636 ± 83.4", "unit": "ng/g"},
      {"measurement": "concentration at 10 h", "setting": "[10]", "value": "205 ± 47.2", "unit": "ng/g"},
      {"measurement": "concentration at 24 h", "setting": "[10]", "value": "6.26 ± 1.12", "unit": "ng/g"},
      {"measurement": "concentration at 48 h", "setting": "[10]", "value": 10.6, "unit": "ng/g"}
    ]}
  ]
}
